Tests used:
p38MAPK = assay: Tyrosine phosphorylation (activation) of p38MAPK in HIV-1 infected M-MΦ by Western blotting; assay type: cell-based, human; details: 30 μM, day 2 of culture, HIV-1BAL infected M-MΦ, compared with DMSO (FIG. 19(A))
Experimental: (§1) P38MAPK and ERK1/2 activation were determined using P38MAPK antibody, anti-ERK1/2 antibody, anti-tyrosine phosphorylation P38MAPK antibody and anti-tyrosine phosphorylation ERK1/2 antibody (New England Biolabs, Inc. U.S.), and phosphorylation reaction of these molecules was determined by Western blotting.
Thirty μM of EM, EM201, EM202, EM703 or CAM were added to M-MΦ infected with HIV-1BAL strain, tyrosine phosphorylation of p38MAPK was detected on day 2 of the culture by Western blotting. […] In any groups, total amount of p38MAPK (total sum of phosphorylated and non-phosphorylated p38MARK) was equal.

[1] = system: HIV-1BAL strain in M type macrophage (M-MΦ) derived from human monocytes; assay: Proliferation of HIV-1 in M-MΦ: p24 protein in culture supernatant by sandwich ELISA; assay type: cell-based; details: for suppression of viral generation (p24 in culture supernatant) in M-MΦ: 30 μM, HIV-1BAL, 14 days of culture, compared with DMSO control (FIG. 13); for viral proliferation at 300 μM in M-MΦ: also observed in DMSO control, ascribed to cytotoxicity of DMSO; for concentration dependence of suppressive action on HIV-1BAL in M-MΦ: various concentrations (FIG. 16); for p24 protein in culture supernatant of oligonucleotide pretreated M-MΦ: day 4, 7 and 10 after HIV-1BAL infection, compared with lipofectin control (L) (FIG. 10)
Experimental: (§2) Macrophages derived from monocytes were prepared by culturing the recovered monocytes in the presence of M-CSF (macrophage colony-stimulating factor) (10^4 U/ml, provided by Morinaga Milk Co.), granulocytes and granulocyte-macrophage colony-stimulating factor, GM-CSF) (500 U/ml, provided by Japan Scheling Plough Co., Osaka, or purchased from R & S Genzyme-TECHNE Inc.) with RPMI1640 medium added with FCS10% (Nissui Seiyaku Co., Tokyo) for 7–8 days.
(§3) The macrophage prepared by differential induction of M-CSF from human monocytes is designated as M type macrophage (M type MΦ or M-MΦ) and the macrophage prepared by differential induction of GM-CSF from human monocytes is designated as GM type macrophage (GM type MΦ or GM-MΦ) Further, alveolar macrophage (alveolar MΦ or A-MΦ) was prepared as follows. Cells in the alveolar lavage liquid obtained from the alveolar lavage of healthy volunteers were recovered, suspended and adhered to plastics, then the non-adhered cells were washed out and the remained adhered cells were designated as the alveolar MΦ.
(§4) Infection of HIV-1 to macrophage was performed as follows. Macrophage directed viral strains, HIV-1JR-FL and HIV-1BAL, were infected for 2 hours in contact with M-MΦ, GM-MΦ and A-MΦ (adjusted to 2.5×10^5/well, Flacon No3043: Becton Dickinson Labware, Inc. U.S.)at low concentration (p24 antigen titer 50 ng/ml, TCID50=3000/ml virus to final concentration at 100 pg/ml), and non-adsorbed virus to the macrophage was washed out, and cultured with adding fresh medium. In case of the medium with M-MΦ, M-CSF was added (10^4 U/ml), and that of the medium with GM-MΦ, GM-CSF was added (500 U/ml).
(§5) Proliferation of virus was examined with the released viral particles in the culture supernatant after the infection by the sandwich ELISA using two types of anti-p24 antibody (Nu24 and 10B5^13). The following JAM62 and JAM65 were used as LTR (HIV long terminal repeat)-gap gene primer. The following JAM63 and JAM 64 were used as the internal primer for the nested PCR. • JAM62: • 5′-[…]-3′ (SEQ ID NO: 1) • JAM65: • 5′-[…]-3′ (SEQ ID NO: 2) • JAM63: • 5′-GTGTOACTCTGGTAACTAGAGATCC-3′ (SEQ ID NO: 3) • JAM64: • 5′-[…]-3′ (SEQ ID NO: 4) (1-4) Assay of Expression of Tyrosine Kinase Hck Protein and Transcription Factor C/EBPβ Protein
(§6) In order to show growth suppression effect of the present invention, among macrolide derivatives, EM, EM201, EM202, EM703, CAM, EM722, EM730, EM732, EM736, EM734, EM735, EM747, EM748, EM743, EM746, EM750 or EM751 was dissolved in DMSO with each 100 mM concentration, and used in dilution with the medium thereafter. A control group was M-MΦ treated only with DMSO used for dissolving macrolide derivatives.
(§7) M-MΦ and GM-M Φ were subjected to contact infection with HIV-1BAL strain for 2 hours, added 30 μM of EM, EM201, EM202, EM703, CAM,EM722, EM730, EM732, EM736, EM734, EM735, EM747, EM748, EM743, EM746, EM750 or EM751, incubated for 14 days and amount of p24 protein in the cultured supernatant was assayed in the time-dependent manner.

ERK1/2 = assay: Tyrosine phosphorylation (activation) of ERK1/2 in HIV-1 infected M-MΦ by Western blotting; assay type: cell-based, human; details: 30 μM, HIV-1BAL infected M-MΦ, compared with DMSO (FIG. 19(B))
Experimental: as §1
In any groups, total amount of ERK1/2 (total sum of phosphorylated and non-phosphorylated p38MARK) was equal [refer to FIG. 19(B)].

[2] = system: tyrosine kinase Hck protein; assay: Expression of tyrosine kinase Hck protein in M-MΦ by Western blotting; assay type: cell-based, human; details: for expression of tyrosine kinase Hck protein in HIV-1 infected M-MΦ: 30 μM, compared with DMSO control (FIG. 18); for expression of tyrosine kinase Hck protein in HIV-1 infected M-MΦ / expression of tyrosine kinase Hck protein in oligonucleotide pretreated M-MΦ after infection: day 2 after HIV-1BAL infection; for expression of tyrosine kinase Hck protein in oligonucleotide treated M-MΦ before infection: probe 2 μM for 24 hours, further 24 hours incubation, compared with lipofectin control (L) (FIG. 9)
Description: Expression of tyrosine kinase Hck protein and transcription factor C/EBPβ protein in macrophage was examined after solubilizing the macrophage in SDS-PAGE sample buffer, performing 10% SDS-polyacrylamide electrophoresis, transferring the protein on the gel to immobilon P membrane (Millipore Inc. U.S.) and checking antibodies against these proteins by Western blotting. Antibody to tyrosine kinase Hck protein (N-30) and antibody to C/EBPβ (C-19) were purchased from Santacluse Inc. (U.S.). Western blotting was detected by Amersham ELC Regent (Amersham International plc, Buckinghamshire, UK). Strength of bands was expressed by PSL (photostimulating luminescence) value (A/mm^2).
These probes were dissolved in the serum free RPMI1640 medium, in which lipofectin (Life Technology Inc., U.S.) was dissolved at 5 μM concentration, at room temperature for 30 minutes, added with RPMI1640 medium, which contains 10% FCS, to the macrophage (final concentration 2 μM) and incubated at 37° C. for 24 hours. Thereafter, cells were washed with the medium, added the RPMI1640 medium containing 10% FCS without oligonucleotide, further cultured for 24 hours, and then infected with HIV-1.
Consequently, M-MΦ was subjected to contact infection with HIV-1BAL strain for 2 hours, added 30 μM of EM, EM201, EM202, EM703 or CAM, incubated and expression of tyrosine kinase Hck protein was observed on day 2 after the infection by Western blotting.

[3] = system: HIV-1BAL strain in GM type macrophage (GM-MΦ) derived from human monocytes; assay: Proliferation of HIV-1 in GM-MΦ: p24 protein in culture supernatant by sandwich ELISA; assay type: cell-based; details: 30 μM, HIV-1BAL, all assay points up to 14 days, similar to DMSO control (FIG. 14)
Experimental: as §2, §3, §4, §5, §6, §7

[4] = system: HIV-1BAL strain infected M-MΦ; assay: Cytopathy (MGC formation) of HIV-1 infected M-MΦ; assay type: cell-based, human; details: 30 μM, HIV-1BAL (FIG. 17)
Experimental: Formation of cell cluster and cell fusion was observed from the 2nd day of the incubation only in virus producing M-MΦ and formation of multinucleatic giant cells were recognized from the culture day 4–7 [refer to FIG. 2(A)]. On the other hand, in GM-MΦ without generation of virus, nomorphological changes were observed [refer to FIG. 2(B)].
M-MΦ was subjected to contact infection with HIV-1BAL strain for 2 hours, added 30 μM of EM, EM201, EM202, EM703 or CAM, incubated and observed the cell morphology.

| Molecule | tyrosine phosphorylation of p38MAPK (p38MAPK) | suppression of viral generation (p24 in culture supernatant) in M-MΦ [1] | viral proliferation at 300 μM in M-MΦ [1] | concentration dependence of suppressive action on HIV-1BAL in M-MΦ [1] | tyrosine phosphorylation of ERK1/2 (ERK1/2) | expression of tyrosine kinase Hck protein in HIV-1 infected M-MΦ [2] | viral generation in GM-MΦ [3] | cytopathic effect (MGC formation) in HIV-1 infected M-MΦ [4] | p24 protein in culture supernatant of oligonucleotide pretreated M-MΦ [1] | expression of tyrosine kinase Hck protein in oligonucleotide pretreated M-MΦ after infection [2] | expression of tyrosine kinase Hck protein in oligonucleotide treated M-MΦ before infection [2] |
| --- | --- | --- | --- | --- | --- | --- | --- | --- | --- | --- | --- |
| CCC1OC(=O)C(C)C(O[C@H]2C[C@@](C)(OC)[C@@H](O)[C@H](C)O2)C(C)C(O[C@@H]2O[C@H](C)C[C@H](N(C)C)[C@H]2O)C(C)(O)CC(C)C(=O)C(C)C(O)C1(C)O (stereo partly drawn) [EM, reference compound] | recognized to decrease, though not so strong | suppression of viral generation was recognized, though not so strong | viral proliferation at 300 μM was observed | exhibited suppression of viral production depending upon drug concentration | weakly recognized as same in the control group | the suppression of tyrosine kinase Hck protein was observed, though not so strong | almost no viral generation was recognized | formation of MGC was slightly recognized | – | – | – |
| Hck-NS: Phosphorothioate-modified non-sense oligonucleotide probe, 5′-CCATATTTCCCGCTCOCGTG-3′ (SEQ ID NO: 7) (CCATATTTCCCGCTCGCGTG; all phosphorothioate, sugars by position and methylation of C not given here) | – | – | – | – | – | – | – | – | time-dependent increase in p24 protein was recognized | no suppression of expression of tyrosine kinase Hck protein was recognized | suppression of expression of tyrosine kinase Hck protein was recognized |
| CC[C@H]1OC(=O)[C@H](C)[C@@H](O[C@H]2C[C@@](C)(OC)[C@@H](O)[C@H](C)O2)[C@H](C)[C@@H](O[C@@H]2O[C@H](C)C[C@H](N(C)C)[C@H]2O)[C@@]2(C)C[C@@H](C)[C@@]3(O[C@@]1(C)[C@H](O)[C@H]3C)O2 [EM202, 6,9,12-Anhydroerythromycin A] | recognized to decrease, though not so strong | suppression of viral generation was recognized, though not so strong | viral proliferation at 300 μM was observed | exhibited suppression of viral production depending upon drug concentration | weakly recognized as same in the control group | the suppression of tyrosine kinase Hck protein was observed, though not so strong | almost no viral generation was recognized | formation of MGC was slightly recognized | – | – | – |
| CC[C@H]1OC(=O)[C@H](C)[C@@H](O[C@H]2C[C@@](C)(OC)[C@@H](O)[C@H](C)O2)[C@H](C)[C@@H](O[C@@H]2O[C@H](C)C[C@H](N(C)C)[C@H]2O)[C@](C)(OC)C[C@@H](C)C(=O)[C@H](C)[C@@H](O)[C@]1(C)O [CAM, Oxacyclotetradecane-2,10-dione,4-[(2,6-dideoxy-3-O-methyl-α-L-ribo-hexopyranosyl)oxy]-14-ethyl-12,13-dihydroxy-7-methoxy-3,5,7,9,11,13-hexamethyl-6-[[3,4,6-trideoxy-3-(dimethylamino)-β-D-xylo-hexopyranosyl]oxy], reference compound] | recognized to decrease, though not so strong | approximately ½ | viral proliferation at 300 μM was observed | exhibited suppression of viral production depending upon drug concentration | weakly recognized as same in the control group | the suppression of tyrosine kinase Hck protein was observed, though not so strong | almost no viral generation was recognized | formation of MGC was slightly recognized | – | – | – |
| Hck-S: Phosphorothioate-modified sense oligonucleotide probe of Hck, 5′-GCCAGOATOGGGTCGATCAA-3′ (SEQ ID NO: 6) | – | – | – | – | – | – | – | – | time-dependent increase in p24 protein was recognized | no suppression of expression of tyrosine kinase Hck protein was recognized | suppression of expression of tyrosine kinase Hck protein was recognized |

— patent publication US7034005B2, “Use of agent for suppressing infection and proliferation of human immunodeficiency syndrome virus” (The Kitasato Institute, priority 2002, dated 2006)
